Results taken from ChEMBL document CHEMBL5380848, “Novel Benzo Five-Membered Heterocycle Derivatives as P-Glycoprotein Inhibitors: Design, Synthesis, Molecular Docking, and Anti-Multidrug Resistance Activity” (J Med Chem, 2023).
Activity calls are given as the source filed them. The rule behind the calls is not given here.

Experiments:
[1] = Toxicity in BALB/c mouse xenografted with doxorubicin-resistant human MCF-7/ADR cells assessed as lung morphological changes at 10 mg/kg for every 2 days once injected through abdominal cavity for 14 days by hematoxylin and eosin staining based analysis; assay type: organism-based; conditions: in vivo, ip, 336 h, time 14 day
[2] = system: NCI/ADR-RES; assay: Effect on ABCD4 gene expression in doxorubicin-resistant human MCF-7/ADR cells at 5 uM incubated for 12 hrs; assay type: functional, cell-based
[3] = system: NCI/ADR-RES; assay: In vivo resistance reversal activity in doxorubicin-resistant human MCF-7/ADR cells xenografted in BALB/c mouse model assessed as potentiation of doxorubicin antitumor effect by measuring reduction in tumor weight at 10 mg/kg for every 2 days once injected through abdominal cavity for 14 days; assay type: functional, organism-based; conditions: time 14.0 day
[4] = system: NCI/ADR-RES; assay: In vivo resistance reversal activity in doxorubicin-resistant human MCF-7/ADR cells xenografted in BALB/c mouse model assessed as reduction in tumor weight at 10 mg/kg for every 2 days once injected through abdominal cavity for 14 days; assay type: functional, organism-based; conditions: time 14.0 day
[5] = system: NCI/ADR-RES; assay: In vivo resistance reversal activity in doxorubicin-resistant human MCF-7/ADR cells xenografted in BALB/c mouse model assessed as potentiation of doxorubicin antitumor effect by measuring reduction in tumor volume at 10 mg/kg for every 2 days once injected through abdominal cavity for 14 days; assay type: functional, organism-based; conditions: time 14.0 day
[6] = system: NCI/ADR-RES; assay: Effect on ABCB6 gene expression in doxorubicin-resistant human MCF-7/ADR cells at 5 uM incubated for 12 hrs; assay type: functional, cell-based
[7] = system: NCI/ADR-RES; assay: Effect on ABCC4 gene expression in doxorubicin-resistant human MCF-7/ADR cells at 5 uM incubated for 12 hrs; assay type: functional, cell-based
[8] = Toxicity in BALB/c mouse xenografted with doxorubicin-resistant human MCF-7/ADR cells assessed as liver morphological changes at 10 mg/kg for every 2 days once injected through abdominal cavity for 14 days by hematoxylin and eosin staining based analysis; assay type: organism-based; conditions: in vivo, ip, 336 h, time 14 day
[9] = Toxicity in BALB/c mouse xenografted with doxorubicin-resistant human MCF-7/ADR cells assessed as kidney morphological changes at 10 mg/kg for every 2 days once injected through abdominal cavity for 14 days by hematoxylin and eosin staining based analysis; assay type: organism-based; conditions: in vivo, ip, 336 h, time 14 day
[10] = system: NCI/ADR-RES; assay: Cytotoxicity against doxorubicin-resistant human MCF-7/ADR cells assessed as inhibition rate at 5 uM measured after […] hrs by CCK-8 assay relative to control; assay type: functional
[11] = Toxicity in BALB/c mouse xenografted with doxorubicin-resistant human MCF-7/ADR cells assessed as body weight change at 10 mg/kg for every 2 days once injected through abdominal cavity for 14 days; assay type: organism-based; conditions: in vivo, ip, 336 h, time 14 day
[12] = target: T1, ATP-dependent translocase ABCB1 (Homo sapiens, UniProt P08183); assay: Inhibition of P-glycoprotein mediated Rhodamine-123 efflux in doxorubicin-resistant human MCF-7/ADR cells assessed as fluorescence intensity of rhodamine-123 accumulation incubated for 30 mins by flow cytometry analysis; assay type: cell-based; conditions: nci-adr-res, 0.5 h, at 2.5 to 10 µM, dose 2.5-10 µM
T1 sequence (P08183 whole entry): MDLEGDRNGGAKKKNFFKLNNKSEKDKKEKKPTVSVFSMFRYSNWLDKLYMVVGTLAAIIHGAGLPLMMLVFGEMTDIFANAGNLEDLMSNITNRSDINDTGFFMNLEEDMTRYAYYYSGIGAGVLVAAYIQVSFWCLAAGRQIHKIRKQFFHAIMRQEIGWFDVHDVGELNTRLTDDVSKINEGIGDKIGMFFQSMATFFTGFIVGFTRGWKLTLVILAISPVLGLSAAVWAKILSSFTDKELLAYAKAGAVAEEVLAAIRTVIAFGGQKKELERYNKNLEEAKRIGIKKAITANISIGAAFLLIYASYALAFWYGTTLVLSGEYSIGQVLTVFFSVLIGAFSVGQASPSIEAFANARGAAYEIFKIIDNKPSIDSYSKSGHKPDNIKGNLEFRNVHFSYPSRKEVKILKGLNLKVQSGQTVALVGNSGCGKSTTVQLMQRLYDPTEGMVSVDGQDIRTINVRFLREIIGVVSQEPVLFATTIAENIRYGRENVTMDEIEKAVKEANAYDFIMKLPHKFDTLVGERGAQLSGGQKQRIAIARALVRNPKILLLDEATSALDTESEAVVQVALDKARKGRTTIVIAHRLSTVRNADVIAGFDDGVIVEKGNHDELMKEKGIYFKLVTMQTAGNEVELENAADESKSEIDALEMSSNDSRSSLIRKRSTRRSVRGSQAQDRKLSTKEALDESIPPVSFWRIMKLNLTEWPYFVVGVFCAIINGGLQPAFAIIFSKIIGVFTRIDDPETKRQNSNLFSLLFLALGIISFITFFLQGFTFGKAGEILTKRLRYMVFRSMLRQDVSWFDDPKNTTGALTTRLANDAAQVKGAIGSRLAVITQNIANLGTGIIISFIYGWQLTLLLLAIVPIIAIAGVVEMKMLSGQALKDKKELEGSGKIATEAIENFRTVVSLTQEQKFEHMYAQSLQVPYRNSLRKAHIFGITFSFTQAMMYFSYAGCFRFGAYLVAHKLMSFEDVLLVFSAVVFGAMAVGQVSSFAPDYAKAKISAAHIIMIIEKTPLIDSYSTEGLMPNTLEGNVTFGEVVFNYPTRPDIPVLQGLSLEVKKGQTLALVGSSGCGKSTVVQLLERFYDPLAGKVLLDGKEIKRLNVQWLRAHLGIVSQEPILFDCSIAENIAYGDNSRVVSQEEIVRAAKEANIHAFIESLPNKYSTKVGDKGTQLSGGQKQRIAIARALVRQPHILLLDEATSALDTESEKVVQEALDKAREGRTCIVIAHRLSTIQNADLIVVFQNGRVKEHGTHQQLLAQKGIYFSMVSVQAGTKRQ

[13] = system: NCI/ADR-RES; assay: In vivo resistance reversal activity in doxorubicin-resistant human MCF-7/ADR cells xenografted in BALB/c mouse model assessed as reduction in tumor volume at 10 mg/kg for every 2 days once injected through abdominal cavity for 14 days; assay type: functional, organism-based; conditions: time 14.0 day
[14] = system: NCI/ADR-RES; assay: Effect on ABCC1 gene expression in doxorubicin-resistant human MCF-7/ADR cells at 5 uM incubated for 12 hrs; assay type: functional, cell-based
[15] = Toxicity in BALB/c mouse xenografted with doxorubicin-resistant human MCF-7/ADR cells assessed as heart morphological changes at 10 mg/kg for every 2 days once injected through abdominal cavity for 14 days by hematoxylin and eosin staining based analysis; assay type: organism-based; conditions: in vivo, ip, 336 h, time 14 day
[16] = system: NCI/ADR-RES; assay: Effect on P-glycoprotein expression in doxorubicin-resistant human MCF-7/ADR cells at 2.5 to 10 uM incubated for 48 hrs by Western blotting analysis; assay type: functional, cell-based; conditions: dose 2.5-10 µM
[17] = system: NCI/ADR-RES; assay: Effect on ABCF2 gene expression in doxorubicin-resistant human MCF-7/ADR cells at 5 uM incubated for 12 hrs; assay type: functional, cell-based
[18] = system: MCF7; assay: Cytotoxicity against human MCF7 cells assessed as inhibition rate at 5 uM measured after […] hrs by CCK-8 assay relative to control; assay type: functional
[19] = target: T1, ATP-dependent translocase ABCB1; assay: Binding affinity to P-glycoprotein in doxorubicin-resistant human MCF-7/ADR cells assessed as thermal stability measured 40 to 60 degC at 0.5 to 2.5 uM incubated for 30 mins by CETSA; assay type: cell-based; conditions: nci-adr-res, 0.5 h, dose 0.5-2.5 µM
[20] = Toxicity in BALB/c mouse xenografted with doxorubicin-resistant human MCF-7/ADR cells assessed as spleen morphological changes at 10 mg/kg for every 2 days once injected through abdominal cavity for 14 days by hematoxylin and eosin staining based analysis; assay type: organism-based; conditions: in vivo, ip, 336 h, time 14 day
[21] = target: T1, ATP-dependent translocase ABCB1; assay: Inhibition of P-gp-mediated multidrug resistance in doxorubicin-resistant human MCF7/ADR cells assessed as fold reversal of resistance by measuring doxorubicin IC50 incubated for 48 hrs by CCK-8 assay relative to doxorubicin IC50 in absence of compound; assay type: cell-based; conditions: nci-adr-res
[22] = system: NCI/ADR-RES; assay: Effect on ABCG2 gene expression in doxorubicin-resistant human MCF-7/ADR cells at 5 uM incubated for 12 hrs; assay type: functional, cell-based
[23] = system: NCI/ADR-RES; assay: Effect on ABCA2 gene expression in doxorubicin-resistant human MCF-7/ADR cells at 5 uM incubated for 12 hrs; assay type: functional, cell-based

fold change (FC) [21]	Structure (SMILES)	inhibition at 5 µM [10]	inhibition at 5 µM [18]	also measured
6011	COc1cc2c(cc1OC)CN(C(=O)c1cc3cc(-c4ccc(NC(=O)c5ccc(Cl)cc5)cc4)ccc3[nH]1)CC2	25%	21.7%	Activity [1]: Non-Toxic; Activity [2]: inactive; Activity [3]: Active; Activity [4]: inactive; Activity [5]: Active; Activity [6]: inactive; Activity [7]: inactive; Activity [8]: Non-Toxic; Activity [9]: Non-Toxic; Activity [11]: Non-Toxic; inhibition (INH) [12]: Dose-Dependent Effect; Activity [13]: inactive; Activity [14]: inactive; Activity [15]: Non-Toxic; Activity [16]: inactive; Activity [17]: inactive; Activity [19]: Active; Activity [20]: Non-Toxic; Activity [22]: inactive; Activity [23]: inactive
333	CCOc1ccc(C(=O)Nc2ccc(-c3ccc4[nH]c(C(=O)N5CCc6cc(OC)c(OC)cc6C5)cc4c3)cc2)cc1	7.7%	15.4%	–
241.9	COc1cc2c(cc1OC)CN(C(=O)c1cc3cc(-c4ccc(NC(=O)c5ccccc5Cl)cc4)ccc3[nH]1)CC2	12.4%	12.7%	–
1021.3	COc1cc2c(cc1OC)CN(C(=O)c1cc3cc(-c4ccc(NC(=O)c5cccc(F)c5)cc4)ccc3[nH]1)CC2	34.1%	31.5%	–
39.9	COc1cc2c(cc1OC)CN(C(=O)c1cc3cc(-c4ccc(NC(=O)c5ccc(Cl)cc5)cc4)ccc3n1Cc1cccc(C(F)(F)F)c1)CC2	6.3%	8.5%	–
1717	COc1cc2c(cc1OC)CN(C(=O)c1cc3cc(-c4ccc(NC(=O)c5ccc(C(F)(F)F)cc5)cc4)ccc3[nH]1)CC2	22%	11.8%	–
486.9	COc1ccc(C(=O)Nc2ccc(-c3ccc4[nH]c(C(=O)N5CCc6cc(OC)c(OC)cc6C5)cc4c3)cc2)cc1OC	37.2%	20.6%	–
29	COc1cc2c(cc1OC)CN(C(=O)c1cc3cc(-c4ccc(NC(=O)c5ccc(Cl)cc5)cc4)ccc3n1Cc1ccc(C(F)(F)F)cc1)CC2	12.6%	15.5%	–

Continued, compound first:

Structure (SMILES)	fold change (FC) [21]	inhibition at 5 µM [10]	inhibition at 5 µM [18]	also measured
COc1cc2c(cc1OC)CN(C(=O)c1cc3cc(-c4ccc(NC(=O)c5ccc(Cl)cc5)cc4)ccc3n1Cc1ccc(OC(F)(F)F)cc1)CC2	29.2	2.8%	0.3%	–
COc1cc(Cn2c(C(=O)N3CCc4cc(OC)c(OC)cc4C3)cc3cc(-c4ccc(NC(=O)c5ccc(Cl)cc5)cc4)ccc32)cc(OC)c1	41.5	11.2%	3%	–
COc1cc2c(cc1OC)CN(C(=O)c1cc3cc(-c4ccc(NC(=O)c5cc(OC)c(OC)c(OC)c5)cc4)ccc3[nH]1)CC2	93.6	10.6%	14.1%	–
COc1cc2c(cc1OC)CN(C(=O)c1cc3cc(-c4ccc(NC(=O)c5ccc(Cl)cc5)cc4)ccc3n1Cc1ccccc1C(F)(F)F)CC2	10.4	8.6%	19.3%	–
COc1cc2c(cc1OC)CN(C(=O)c1cc3cc(-c4ccc(NC(=O)c5ccc(Cl)cc5)cc4)ccc3n1Cc1ccc(Br)cc1)CC2	31.1	-13.8%	3.5%	–
COc1cc2c(cc1OC)CN(C(=O)c1cc3cc(-c4ccc(NC(=O)c5ccc(Cl)cc5)cc4)ccc3n1Cc1ccc(F)cc1)CC2	53.5	16.6%	11.2%	–
COc1cc2c(cc1OC)CN(C(=O)c1cc3cc(-c4ccc(NC(=O)c5ccc(Cl)cc5)cc4)ccc3n1Cc1ccccc1Cl)CC2	30.3	18.6%	13.4%	–
COc1cc2c(cc1OC)CN(C(=O)c1cc3cc(-c4ccc(NC(=O)c5ccc(Cl)cc5)cc4)ccc3n1Cc1cc(C(F)(F)F)cc(C(F)(F)F)c1)CC2	40.9	1.9%	3.8%	–
